Test results reported in ChEMBL document CHEMBL3286226, “Discovery of thienopyrimidine-based FLT3 inhibitors from the structural modification of known IKKβ inhibitors” (Bioorg Med Chem Lett, 2014).

Columns and labels:
RAW264.7 [1] = assay: cells; details: Mus musculus
Description: Antiinflammatory activity against mouse RAW264.7 cells assessed as reduction of LPS-induced TNF-alpha production

[2] = biological target: T1, Receptor-type tyrosine-protein kinase FLT3 (Homo sapiens, UniProt P36888)
T1 sequence (P36888 whole entry): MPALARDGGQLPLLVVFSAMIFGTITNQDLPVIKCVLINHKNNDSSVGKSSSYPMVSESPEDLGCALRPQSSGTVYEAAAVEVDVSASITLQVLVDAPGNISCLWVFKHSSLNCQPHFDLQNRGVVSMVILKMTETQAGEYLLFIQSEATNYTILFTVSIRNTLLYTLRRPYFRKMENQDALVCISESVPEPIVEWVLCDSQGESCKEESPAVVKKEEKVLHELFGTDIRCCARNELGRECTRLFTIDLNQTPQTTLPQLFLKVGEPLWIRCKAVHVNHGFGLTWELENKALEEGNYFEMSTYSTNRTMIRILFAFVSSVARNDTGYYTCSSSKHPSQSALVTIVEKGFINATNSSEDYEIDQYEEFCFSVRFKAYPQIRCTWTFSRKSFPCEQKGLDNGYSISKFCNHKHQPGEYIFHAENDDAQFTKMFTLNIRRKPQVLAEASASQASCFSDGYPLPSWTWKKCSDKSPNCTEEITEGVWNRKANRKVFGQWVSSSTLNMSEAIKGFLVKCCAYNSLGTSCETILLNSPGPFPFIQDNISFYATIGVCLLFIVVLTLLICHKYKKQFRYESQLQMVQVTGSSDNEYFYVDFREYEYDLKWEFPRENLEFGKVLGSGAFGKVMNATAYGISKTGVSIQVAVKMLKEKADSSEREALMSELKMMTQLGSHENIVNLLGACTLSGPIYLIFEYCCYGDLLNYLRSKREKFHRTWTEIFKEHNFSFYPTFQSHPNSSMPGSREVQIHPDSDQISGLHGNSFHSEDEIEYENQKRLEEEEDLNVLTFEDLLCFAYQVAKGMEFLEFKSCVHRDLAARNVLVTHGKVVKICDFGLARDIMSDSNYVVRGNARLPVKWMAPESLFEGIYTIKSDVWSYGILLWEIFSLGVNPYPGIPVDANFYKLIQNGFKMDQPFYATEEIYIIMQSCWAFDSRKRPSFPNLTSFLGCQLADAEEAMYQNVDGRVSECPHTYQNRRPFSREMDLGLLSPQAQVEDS
Description: Inhibition of FLT3 kinase (unknown origin)

[3] = biological target: T2, Inhibitor of nuclear factor kappa-B kinase subunit beta (Homo sapiens, UniProt O14920)
T2 sequence (O14920 whole entry): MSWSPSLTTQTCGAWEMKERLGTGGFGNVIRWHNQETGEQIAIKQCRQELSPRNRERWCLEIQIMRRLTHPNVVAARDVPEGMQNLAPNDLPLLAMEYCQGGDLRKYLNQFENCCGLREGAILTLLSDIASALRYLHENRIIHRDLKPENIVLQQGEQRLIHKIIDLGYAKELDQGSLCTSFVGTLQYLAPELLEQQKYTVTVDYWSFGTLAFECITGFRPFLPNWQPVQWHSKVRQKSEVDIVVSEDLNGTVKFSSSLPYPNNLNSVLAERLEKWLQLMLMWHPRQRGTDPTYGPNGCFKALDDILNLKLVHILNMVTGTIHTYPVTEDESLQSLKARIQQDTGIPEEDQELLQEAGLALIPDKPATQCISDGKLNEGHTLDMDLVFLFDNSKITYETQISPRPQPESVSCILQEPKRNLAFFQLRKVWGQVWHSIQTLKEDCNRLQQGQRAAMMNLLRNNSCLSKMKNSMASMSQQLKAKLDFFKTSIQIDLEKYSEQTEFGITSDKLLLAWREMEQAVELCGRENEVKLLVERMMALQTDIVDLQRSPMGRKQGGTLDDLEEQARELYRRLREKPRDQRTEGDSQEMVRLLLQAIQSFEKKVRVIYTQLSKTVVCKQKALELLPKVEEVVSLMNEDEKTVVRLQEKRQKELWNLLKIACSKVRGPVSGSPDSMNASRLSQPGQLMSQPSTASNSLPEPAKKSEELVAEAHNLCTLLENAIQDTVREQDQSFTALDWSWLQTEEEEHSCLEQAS
Description: Inhibition of IKKbeta kinase (unknown origin) by Lance ULight system

HL-60 = assay: Growth inhibition of human HL60 cells by XTT assay; type: functional
[4] = Growth inhibition of human THP1 cells by XTT assay; type: functional; details: THP-1
[5] = biological target: T2, Inhibitor of nuclear factor kappa-B kinase subunit beta; remark: listed apart in the source
Description: Inhibition of IKKbeta kinase (unknown origin) by Radioisotope system

MV4-11 = assay: Growth inhibition of human MV4-11 cells by XTT assay; type: functional
K562 = assay: Growth inhibition of human K562 cells by XTT assay; type: functional; set-up: scale not given: the % may be the effect or the level left
[6] = biological target: Receptor-type tyrosine-protein kinase FLT3 (Homo sapiens) (UniProt P36888); assay: Inhibition of human FLT3 kinase assessed as residual activity at 10 uM relative to control
RAW264.7 [7] = assay: cells; details: Mus musculus; remark: listed apart in the source
Description: Antiinflammatory activity against mouse RAW264.7 cells assessed as reduction of LPS-induced NO production

[8] = tested on: Receptor-type tyrosine-protein kinase FLT3 (Homo sapiens), P36888 [D835Y]; assay: Inhibition of human FLT3 kinase D835Y mutant assessed as residual activity at 10 uM relative to control

IC50 (RAW264.7 [1]): 4220 nM | IC50 [2]: 65 nM | IC50 [3]: > 50000 nM | GI50 (HL-60): 264 nM | IC50 [5]: Not Active | GI50 (MV4-11): 3 nM | Activity [6]: 5% | IC50 (RAW264.7 [7]): 1920 nM | Activity [8]: 2%
SMILES: CC1=CC(=O)N(Nc2nc(-c3cccs3)nc3scc(C)c23)C1=O
GI50 [4]: 111 nM | Activity (K562): 0.257%
